The source of these data is patent US9217743B2, “Screening method utilizing thalidomide-targeting factor” (Tokyo Institute of Technology, priority 2009, dated 2015).

One data set addresses T1, DDB1-V5-His (Homo sapiens, UniProt Q16531).
T1 construct: made in house; host or cells: Sf9 insect cells (Bac-to-bac baculovirus)
Put plainly: In vitro binding assay of purified recombinant protein with thalidomide-immobilized beads. From the text: (§1) Recombinant CRBN-FLAG and DDB1-V5-His proteins were expressed in the insect Sf9 cells by using the Bac-to-bac baculovirus expression system (Invitrogen) and purified using anti-FLAG M2 agarose beads (Sigma) and Ni-NTA agarose beads (Qiagen), respectively. Purified CRBN-FLAG and/or DDB1-V5-His were mixed with thalidomide-immobilized beads, and the bound proteins were eluted with an SDS sample buffer. For analysis of CRBN-deletion mutant, GST-fused CRBN and its mutants were expressed in E. coli BL21 and purified using glutathione Sepharose (GE Healthcare). CRBN mutants were overexpressed in 293T cells by transfection using Lipofectamine 2000 (Invitrogen). Subsequent binding assays were carried out as described above.

For a further data set, the target named is T2, CRBN-FLAG (Homo sapiens, UniProt Q96SW2).
T2 construct: made in house; host or cells: Sf9 insect cells (Bac-to-bac baculovirus)
Described as above.
Excerpt: as §1

The next data set deals with DDB1. In words: Elution of DDB1 from thalidomide-immobilized beads by test compound, Western blotting. The note with it: Example 6; 293T extracts; elution with 1 mM compound. Background: A western blot detects proteins with antibodies after separation by electrophoresis.
Another data set addresses T3, CRBN YW/AA (Homo sapiens, UniProt Q96SW2, W386A/Y384A).
T3 construct: expressed in transfected cells; host or cells: 293T stably expressing FH-CRBN YW/AA
Put plainly: Autoubiquitination in live cells, 293T cells stably expressing FH-CRBN YW/AA. It counts as cell-based. The note with it: thalidomide 10, 30 and 100 μM, with MG132. The procedure: (§2) The present inventors examined whether thalidomide would inhibit ubiquitination of the CRBN-containing E3 complex. 293T cells stably expressing FH-CRBN or FH-CRBN YW/AA were treated with MG132 and thalidomide (10, 30, and 100 μM) at similar concentration relative to the therapeutic doses used in human.
(§3) The assays were performed as described (Cited Literature 38). 293T cells stably expressing FH-CRBN or its mutant were treated with 10 μM MG132 or DMSO (vehicle) for three hours. The cells lysate were prepared using RIPA buffer containing 25 μM MG132 and 10 mM N-ethylmaleimide. FH-CRBN was immunoprecipitated and analyzed as described above. Various concentrations of thalidomide were added to cells one hour prior to MG132 treatment.

Data set [1] deals with T4, CRBN-containing E3 complex (Homo sapiens, UniProt Q96SW2).
T4 construct: expressed in transfected cells; host or cells: 293T stably expressing FH-CRBN
In words: Autoubiquitination in live cells, 293T cells stably expressing FH-CRBN. Format: cell-based. The conditions noted are these: thalidomide 10, 30 and 100 μM, with MG132. The procedure: as §2, §3

The target in a further data set is T5, DDB1 and CRBN (Homo sapiens, UniProt Q96SW2).
T5 construct: endogenous in cells; host or cells: HeLa
In words: Affinity purification from HeLa cell extracts with thalidomide-immobilized beads, competition by free thalidomide. It counts as binding. The conditions noted are these: 0.3 mM free thalidomide added to HeLa extracts before the beads. As to the method: To purify thalidomide-binding proteins, the present inventors performed affinity purification using FG beads, which are magnetic particles (Cited Literature 9). FR259625, a thalidomide derivative in which a carboxyl group is added was covalently immobilized on the FG beads (FIG. 6), and mixed and incubated with human HeLa cell extracts. […] The 127 and 55 kDa proteins were analyzed by mass spectrometry and identified as DDB1 and CRBN, respectively (Table 1). Identities of these proteins were also confirmed by Western blotting (immunoblotting) (FIG. 1A), and further, these proteins were isolated similarly as thalidomide binding protein from extracts of various cell types (FIG. 7). To determine whether this interaction with thalidomide is direct, the present inventors purified recombinant proteins. CRBN-FLAG, but not DDB1-V5-His, bound to thalidomide-immobilized beads (FIG. 1B).

The next data set relates to zebrafish embryos. Put plainly: Zebrafish embryo development, pectoral fins and otic vesicles. It counts as in vivo, zebrafish (Danio rerio). From the text:
To elucidate possible effects of thalidomide on zebrafish development, dechorionated embryos were transferred to media containing various concentrations of thalidomide. […] More specifically, formation of the endoskeletal disc of the pectoral fin was inhibited at 75 hpf (FIG. 4A), and the size of otic vesicles at 30 hpf was reduced (FIG. 4B). Retardation of pectoral fin development was also detected at 48-hpf embryos (FIGS. 5C and D). Recent studies have reported that development of pectoral fins and otic vesicles in teleosts (including zebrafish) shares common molecular mechanisms with the limb and ear development in tetrapods (Cited Literatures 24 to 26).
Thalidomide was dissolved in DMSO and added to a final concentration of 400 μM to E3 medium prewarmed to […]. Zebrafish embryos were dechorionated prior to thalidomide as follows: At 2 hpf, the embryos were incubated in E3 medium containing 2 mg/ml Protease type XIV (Sigma) for three minutes and then washed five times with the medium. After dechorionation, embryos were immediately transferred to E3 medium containing thalidomide, and observed for three days. The thalidomide-containing medium was exchanged every 12 hours.
Extracellular matrices associated with chondrocytes were stained with Alcian blue (Cited Literature 40). Zebrafish embryos were fixed in 3.7% neutral buffered formaldehyde for overnight. The next day, the embryos were washed with 100% ethanol and rehydrated with PBS. Subsequently, the embryos were incubated with a solution of 0.05% trypsin in saturated sodium tetraborate for one to three hours. Pigmentation of fish was removed by 3% hydrogen peroxide/1% potassium hydroxide solution. Stained embryos were stored in 70% glycerol-containing PBS solution.
Microinjection into one-cell stage embryos was carried out in accordance with Cited Literature 39. The present inventors used a nitrogen gas-pressure microinjector (IM 300, Narishige Co., Ltd.) for injection. Capped mRNAs were prepared in vitro using the mMESSAGE mMACHINE in vitro transcription kit (Ambion).
Zebrafish embryos at 48 hpf were anesthetized with 1% methylcellulose and 0.003% 3-amino benzoic acid ethyl ester (Sigma) and mounted on a slide glass. Then, otic vesicles of ten embryos randomly selected from each sample were photographed. The size was measured using the NIH image J software and compared to that of control. Average sizes and standard errors were calculated, and p-values were determined by the Mann-Whitney U test.

“Also recorded” adds a separate entry of the source.

`O=C1CCC(N2C(=O)c3ccccc3C2=O)C(=O)N1` (stereo not drawn) [thalidomide]: at DDB1-V5-His, the “binding of thalidomide to recombinant DDB1-V5-His” value is listed as “indirectly via CRBN”. The “binding of thalidomide to recombinant CRBN-FLAG” value at CRBN-FLAG is recorded as “directly binds”. The “DDB1 in the eluate fraction” value with DDB1 was “detected”. Besides, at CRBN YW/AA, the “autoubiquitination of CRBN YW/AA” value is “not affected”. For the same molecule, in data set [1], the “autoubiquitination of wild-type CRBN” value is recorded as “potently inhibited; also recorded: suppressed”. Further, the “yield of DDB1 and CRBN on the beads” value on DDB1 and CRBN is given as “reduced significantly”. Besides, the “size of otic vesicles, of the control size” value with zebrafish embryos (400 μM thalidomide, uninjected embryos) is given as 64.5%; with zebrafish embryos (thalidomide, embryos overexpressing wild-type zCrbn) it was “approximately 66%”. For the same molecule, the “size of otic vesicles” value is on record as “reduced” in the data set with zebrafish embryos (30 hpf) and “did not affect” in the data set with zebrafish embryos (thalidomide, embryos overexpressing zCrbn YW/AA). The “formation of the endoskeletal disc of the pectoral fin” value in the data set with zebrafish embryos (75 hpf) is reported as “inhibited”. Besides, the “development of pectoral fins and otic vesicles” value in the data set with zebrafish embryos (embryos in thalidomide-containing media from 2 hpf) was “disturbed”.
